Like-named read-outs stand apart in the source and are kept apart here.
Assays:
[1] = test system: SU-DHL6; experiment: Inhibition of tumor cell proliferation, CellTiter-Glo, SU-DHL6; type: cell-based; details: compound concentration 50 μM, 72 hours
Summary of the method: (§1)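 Activity is graded from survival at 50 μM: + for 60 to under 90%, ++ for over 30 to 60%, +++ for 30% or less. Survival was measured luminescently (CellTiter-Glo) 72 h after dosing, relative to untreated and blank wells; 2000-10000 cells/well, 37° C, 5% CO2.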

[2] = test system: RPMI-8226; experiment: Inhibition of tumor cell proliferation, CellTiter-Glo, RPMI-8226; type: cell-based; details: compound concentration 50 μM, 72 hours
Summary of the method: as §1

[3] = test system: K562; experiment: Inhibition of tumor cell proliferation, CellTiter-Glo, K562; type: cell-based; details: compound concentration 50 μM, 72 hours
Summary of the method: as §1

[4] = test system: A549; experiment: Inhibition of tumor cell proliferation, CellTiter-Glo, A549; type: cell-based; details: compound concentration 50 μM, 72 hours
Summary of the method: as §1

[5] = test system: MDA-MB-453; experiment: Inhibition of tumor cell proliferation, CellTiter-Glo, MDA-MB-453; type: cell-based; details: compound concentration 50 μM, 72 hours
Summary of the method: as §1

[6] = test system: BxPC-3; experiment: Inhibition of tumor cell proliferation, CellTiter-Glo, BxPC-3; type: cell-based; details: compound concentration 50 μM, 72 hours
Summary of the method: as §1

[7] = target: LC3B (Homo sapiens (Human), UniProt Q9GZQ8); experiment: Fluorescence polarization experiment targeting LC3B (GST-LC3B with FITC-labeled peptide)
[8] = GST-LC3B 180 nM, FITC-labeled peptide 18 nM, 25° C.

IC50 [7] [µM]	Compound	Inhibitory activity against proliferation (cell survival rate) SU-DHL6 [1]	Inhibitory activity against proliferation (cell survival rate) RPMI-8226 [2]	Inhibitory activity against proliferation (cell survival rate) K562 [3]	Inhibitory activity against proliferation (cell survival rate) A549 [4]	Inhibitory activity against proliferation (cell survival rate) MDA-MB-453 [5]	Inhibitory activity against proliferation (cell survival rate) BxPC-3 [6]	IC50 [7, 8] [µM]	cell survival rate (% of control) at 50 µM ([1]; Homo sapiens, SU-DHL-6, read-out: Inhibitory activity against proliferation (cell survival rate) SU-DHL6) [%]	cell survival rate (% of control) at 50 µM ([2]; Homo sapiens, RPMI-8226, read-out: Inhibitory activity against proliferation (cell survival rate) RPMI-8226) [%]	cell survival rate (%) at 50 µM ([3]; Homo sapiens, K562, read-out: Inhibitory activity against proliferation (cell survival rate) K562) [%]	cell survival rate (% of control) at 50 µM ([4]; Homo sapiens, A549, read-out: Inhibitory activity against proliferation (cell survival rate) A549) [%]	cell survival rate (%) at 50 µM ([5]; Homo sapiens, MDA-MB-453, read-out: Inhibitory activity against proliferation (cell survival rate) MDA-MB-453) [%]	cell survival rate (%) at 50 µM ([6]; Homo sapiens, BXPC-3, read-out: Inhibitory activity against proliferation (cell survival rate) BxPC-3) [%]
–	O=C1CCC(N2Cc3c(NC=C4C(=O)CC(c5c(C(F)(F)F)ccc(Cl)c5Cl)CC4=O)cccc3C2=O)C(=O)N1 (stereo not shown) [Compound 141]	+++ (survival rate (%)≤30)	++ (30<survival rate (%)≤60)	++ (30<survival rate (%)≤60)	+++ (survival rate (%)≤30)	+++ (survival rate (%)≤30)	+ (60≤survival rate (%)<90)	< 3	–	–	–	–	–	–
–	O=C1CCC(N2Cc3c(NC(=O)CN4CCN(CCNC=C5C(=O)CC(c6c(Cl)ccc(C(F)(F)F)c6Cl)CC5=O)CC4)cccc3C2=O)C(=O)N1 (stereo not shown) [Compound 158]	+++ (survival rate (%)≤30)	++ (30<survival rate (%)≤60)	++ (30<survival rate (%)≤60)	+++ (survival rate (%)≤30)	+++ (survival rate (%)≤30)	+ (60≤survival rate (%)<90)	< 3	–	–	–	–	–	–
–	O=C1CCC(N2Cc3c(NC(=O)CCCNC=C4C(=O)CC(c5ccccc5)CC4=O)cccc3C2=O)C(=O)N1 (stereo not shown) [Compound 47]	+++ (survival rate (%)≤30)	+ (60≤survival rate (%)<90)	+ (60≤survival rate (%)<90)	+ (60≤survival rate (%)<90)	+++ (survival rate (%)≤30)	++ (30<survival rate (%)≤60)	100 to 1000	–	–	–	–	–	–
–	Cc1ccc(C2CC(=O)C(=CNc3cccc4c3CN(C3CCC(=O)NC3=O)C4=O)C(=O)C2)c(Br)c1 (stereo not shown) [Compound 20]	++ (30<survival rate (%)≤60)	+ (60≤survival rate (%)<90)	++ (30<survival rate (%)≤60)	++ (30<survival rate (%)≤60)	+ (60≤survival rate (%)<90)	+ (60≤survival rate (%)<90)	< 3	–	–	–	–	–	–
< 3	CCOC(=O)C1C(=O)C(=CNc2cccc3c2CN(C2CCC(=O)NC2=O)C3=O)C(=O)CC1c1cccc2[nH]ccc12 (stereo not shown) [Compound 25]	–	–	–	–	–	–	–	60 to 90	60 to 90	60 to 90	60 to 90	60 to 90	60 to 90
–	C[C@@H](CC(=O)Nc1cccc2c1CN(C1CCC(=O)NC1=O)C2=O)NC=C1C(=O)CC(c2ccccc2)CC1=O (stereo partly shown) [Compound 44]	+++ (survival rate (%)≤30)	+++ (survival rate (%)≤30)	+++ (survival rate (%)≤30)	+++ (survival rate (%)≤30)	+ (60≤survival rate (%)<90)	+ (60≤survival rate (%)<90)	100 to 1000	–	–	–	–	–	–
–	O=C1CC(c2ccccc2)CC(=O)C1=CNCCN1CCN(C(=O)N2C(=O)CCC(N3C(=O)c4ccccc4C3=O)C2=O)CC1 (stereo not shown) [Compound 101]	++ (30<survival rate (%)≤60)	+++ (survival rate (%)≤30)	+++ (survival rate (%)≤30)	+++ (survival rate (%)≤30)	++ (30<survival rate (%)≤60)	+ (60≤survival rate (%)<90)	15 to 100	–	–	–	–	–	–

Reference: patent US11021457B2, “Class of isoindolone-imide ring-1,3-dione-2-ene compounds, composition and use thereof” (WIGEN BIOMEDICINE TECHNOLOGY (SHANGHAI) CO., LTD., priority 2017, dated 2021)
